Measurements as given in PMC5719400, “Engineering an aldehyde dehydrogenase toward its substrates, 3-hydroxypropanal and NAD^+, for enhancing the production of 3-hydroxypropionic acid” (Scientific Reports, 2017).

Target: T1, KGSADH (α-ketoglutaric semialdehyde dehydrogenase) (Azospirillum brasilense, UniProt Q1JUP4)
T1 construct: gene araE; N-terminal His6-tag (pQE80L), expressed in E. coli DH10β, Ni-NTA purified; catalytic residues E253 and C287
Assay: product inhibition, A340 activity assay
Format: biochemical
Conditions: 2 mM NAD+, 100 mM phosphate pH 8

T1 sequence (Q1JUP4 2-481): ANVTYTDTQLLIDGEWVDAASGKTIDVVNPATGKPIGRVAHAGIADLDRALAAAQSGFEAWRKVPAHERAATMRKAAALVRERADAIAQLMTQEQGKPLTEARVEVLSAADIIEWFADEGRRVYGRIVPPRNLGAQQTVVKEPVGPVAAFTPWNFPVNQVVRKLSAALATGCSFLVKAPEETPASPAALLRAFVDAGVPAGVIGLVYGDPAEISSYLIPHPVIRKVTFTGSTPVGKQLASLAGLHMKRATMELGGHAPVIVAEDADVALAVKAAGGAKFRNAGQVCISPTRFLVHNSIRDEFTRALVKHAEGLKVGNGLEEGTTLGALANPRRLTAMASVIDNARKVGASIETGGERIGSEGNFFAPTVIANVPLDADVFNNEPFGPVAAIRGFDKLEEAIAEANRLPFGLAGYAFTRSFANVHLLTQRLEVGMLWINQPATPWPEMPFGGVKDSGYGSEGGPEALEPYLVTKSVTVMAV

With `O=C(O)CCO` [3-HP, 3-hydroxypropionic acid] the “% decrease in activity at 1 M” value was ~ 40%.
